The test system of experiment [1] is GLI1, GLI2, SHH mRNA in A549 NSCLC cells. The experiment in a line: GLI and SHH mRNA expression in A549 cells (Q-RT-PCR). The class given is cell-based, human. Here is the method: Total RNA was extracted with the RNeasy Plus Mini Kit from Qiagen (Hilden, Germany) according to the manufacturer’s instructions. One microgram of RNA was reverse-transcribed using an iScript Reverse Transcription Supermix from Bio-Rad Laboratories (Hercules, CA, USA) to make single-stranded cDNA. The cDNAs were then mixed with Qi SYBR Green Supermix (Bio-Rad) for quantitative RT-PCR assay using a Bio-Rad I-cycler IQ quantitative thermocycler. All PCR samples were prepared in triplicate wells in a 96-well plate. After 40 cycles of PCR, melt curves were examined in order to ensure primer specificity. Fold changes in gene expression were calculated using the ΔΔCt method. Primers used for mouse were as follows: Oaz1 (5′-CCACTGCTTCGCCAGAGAG-3′) and (5′-CCCGGACCCAGGTTACTA-3′), Gli1 (5′- […]-3′ and 5′- GCT GATCCAGCCTAAGGTTCTC-3′), Ptch1 (5′-CCATCGGCGACAAGAACC-3′ and 5′-[…]-3′), Thbs1 (5′-[…]-3′ and 5′-CGGGGATCAGGTTGGCATT-3′), Cryab (5′-[…]-3′ and 5′-[…]-3′), Egr2 (5′-[…]-3′ and 5′-[…]-3′), CTGF (5′-GGGCCTCTTCTGCGATTTC-3′ and 5′-[…]-3′).
Primers used for human were as follows: GAPDH (5′- […]-3′ and 5′- […]-3′), SHH (5′- CGGAGCGAGGAAGGGAAAG-3′) and (5′- […]-3′), GLI1 (5′- GAAGCCGAGCCGAGTATC-3′ and 5′-[…]-3′), GLI2 (5′-[…]-3′ and 5′-[…]-3′), Fn-EDA (5′- […]-3′ and 5′- […]-3′), E-Cadherin (5′- […]-3′ and 5′- TCCCAGGCGTAGACCAAGA-3′), SNAIL (5′- […]-3′ and 5′- […]-3′), N-Cadherin (5′- […]-3′ and 5′- […]-3′), Vimentin (5′- […]-3′ and 5′- […]-3′), ZO-1 (5′- […]-3′ and 5′- […]-3′), MMP2 (5′- […]-3′ and 5′- […]-3′), MMP9 (5′-[…]-3′ and 5′-[…]).
Figure 6 Inhibition of Glis and SHH expression in Non-Small Cell Lung Cancer (NSCLC) cells. A549 (a) and H2030 (b) cells were treated with Oxy210 in RPMI 1640 containing 5% FBS for 72 h, then RNA was extracted and analyzed by Q-RT-PCR for the expression of the indicated genes and normalized to GAPDH expression. (c) A549 cells were pretreated for 2 h with Oxy210 in RPMI 1640 containing 5% FBS. […] After 48 h, RNA was extracted and analyzed by Q-RT-PCR for the expression of Gli1 and Shh and normalized to GAPDH expression. […]

Experiment [2] deals with GLI1, GLI2 mRNA in H2030 NSCLC cells. The experiment in a line: GLI mRNA expression in H2030 cells (Q-RT-PCR). Format: cell-based, human. As to conditions: 5 μM, 72 h. Here is the method:
Total RNA was extracted with the RNeasy Plus Mini Kit from Qiagen (Hilden, Germany) according to the manufacturer’s instructions. One microgram of RNA was reverse-transcribed using an iScript Reverse Transcription Supermix from Bio-Rad Laboratories (Hercules, CA, USA) to make single-stranded cDNA. The cDNAs were then mixed with Qi SYBR Green Supermix (Bio-Rad) for quantitative RT-PCR assay using a Bio-Rad I-cycler IQ quantitative thermocycler. All PCR samples were prepared in triplicate wells in a 96-well plate. After 40 cycles of PCR, melt curves were examined in order to ensure primer specificity. Fold changes in gene expression were calculated using the ΔΔCt method. […]
Figure 6 Inhibition of Glis and SHH expression in Non-Small Cell Lung Cancer (NSCLC) cells. A549 (a) and H2030 (b) cells were treated with Oxy210 in RPMI 1640 containing 5% FBS for 72 h, then RNA was extracted and analyzed by Q-RT-PCR for the expression of the indicated genes and normalized to GAPDH expression. […] After 48 h, RNA was extracted and analyzed by Q-RT-PCR for the expression of Gli1 and Shh and normalized to GAPDH expression. […]

The target in the next experiment is T1, Human TGFBR2 (Homo sapiens, UniProt P37173).
T1 construct: Human TGFBR2 (amino acid 188-end); purchased Eurofins
T1 sequence (P37173 188-567 limits assumed): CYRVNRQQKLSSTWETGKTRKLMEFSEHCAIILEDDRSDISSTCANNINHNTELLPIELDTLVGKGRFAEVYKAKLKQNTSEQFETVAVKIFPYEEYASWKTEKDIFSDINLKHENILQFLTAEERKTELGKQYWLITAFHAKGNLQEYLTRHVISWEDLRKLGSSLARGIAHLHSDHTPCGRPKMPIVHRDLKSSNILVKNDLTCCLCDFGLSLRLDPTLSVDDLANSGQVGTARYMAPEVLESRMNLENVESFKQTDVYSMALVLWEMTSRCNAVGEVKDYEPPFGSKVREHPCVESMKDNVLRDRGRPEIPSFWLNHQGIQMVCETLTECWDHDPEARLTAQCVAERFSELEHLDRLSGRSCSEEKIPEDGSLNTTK
The experiment in a line: TGFβ receptor II kinase inhibition assay (Eurofins). Format: biochemical. To be noted: vs. positive controls Cdk1/2 Inhibitor III and PKR Inhibitor. Here is the method:
Effect of Oxy210 on inhibition of TGFβ receptors I and II kinase activity was assessed by Eurofins (Celle-L’Evescault, France). TGFBR1 (h): Human TGFBR1 (amino acid 200 to end) was incubated with 8 mM MOPS pH 7.0, 0.2 mM EDTA, 1 mM MnCl2, 2 mg/mL casein, 10 mM Magnesium acetate and […] (specific activity and concentration as required). The reaction was initiated by the addition of the Mg/ATP mix. After incubation for 40 min at room temperature, the reaction was stopped by the addition of phosphoric acid to a concentration of 0.5%. 10 μL of the reaction was then spotted onto a P30 filtermat and washed four times for 4 min in 0.425% phosphoric acid and once in methanol prior to drying and scintillation counting. TGFBR2 (h): Human TGFBR2 (amino acid 188-end) was incubated with 20 mM Tris/HCl pH 8.5, 0.2 mM EDTA, 0.33 mg/mL MBP, 10 mM Magnesium acetate and [9-33P-ATP] (specific activity and concentration as required). The reaction was initiated by the addition of the Mg/ATP mix. After incubation for 120 min at room temperature, the reaction was stopped by the addition of phosphoric acid to a concentration of 0.5%. […]
Figure 11 Inhibition of TGFβ-induced Smad2/3 phosphorylation and transcriptional activity. […] Luciferase activity was measured and normalized to the Renilla luciferase activity. […]

Experimental findings from PMC6829886, “Inhibition of Non-Small Cell Lung Cancer Cells by Oxy210, an Oxysterol-Derivative that Antagonizes TGFβ and Hedgehog Signaling” (Cells, 2019) are described below.

As to `C[C@]12CC[C@H]3[C@@H](CC=C4C[C@@H](O)CC[C@@]43C)[C@@H]1CC[C@@H]2[C@](C)(O)CCc1cccnc1` [Oxy210, (3S,8S,9S,10R,13S,14S,17S)-17-((R)-2-hydroxy-4-(pyridin-3-yl)butan-2-yl)-10,13-dimethyl-2,3,4,7,8,9,10,11,12,13,14,15,16,17-tetradecahydro-1H-cyclopenta[a]phenanthren-3-ol], the “mRNA expression of GLI1 and GLI2” value in experiment [1] (5 μM, 72 h) is on record as “significantly inhibited”; in experiment [2] it was “significantly inhibited”. Also, the “expression of SHH mRNA” value in experiment [1] (72 h) is recorded as “significantly inhibited”. In addition, the “expression of GLI1 and SHH mRNA induced by TGFβ” value in experiment [1] (TGFβ 10 ng/mL, 48 h) is reported as “completely inhibited”. In addition, on Human TGFBR2, the “inhibitory activity on TβRII in functional kinase assay” value is recorded as “did not display significant inhibitory activity”.
